# Measurements published in patent publication US6872745B2, “Antipicornaviral compounds and compositions, their pharmaceutical uses, and materials for their synthesis” (Agouron Pharmaceuticals, Inc., priority 2000, dated 2005).
# Key:
# [1] = Cytotoxicity in mock-infected cells of the antirhinoviral assay (XTT); format: cell-based; details: human, H1-HeLa cells, table line HRV-14
# Procedure: (§1) In this cell protection assay, the ability of compounds to protect cells against HRV infection was measured by the XTT dye reduction method, which is described in Weislow et al., J. Natl. Cancer Inst. (1989), vol. 81, 577-586. H1-HeLa cells were infected with HRV-14 at a multiplicity of infection (m.o.i.) of 0.13 (virus particles/cell) or mock-infected with medium only. Infected or mock-infected cells were resuspended at 8×10^5 cells per ml, and incubated with appropriate concentrations of the compounds to be tested. Two days later, XTT/PMS was added to test plates and the amount of formazan produced was quantified spectrophotometrically at 450/650 nm. The EC50 value was calculated as the concentration of compound that increased the percentage of formazan production in compound-treated, virus-infected cells to 50% of that produced by compound-free, mock-infected cells. The 50% cytotoxic dose (CC50) was calculated as the concentration of compound that decreased the percentage of formazan produced in compound-treated, mock-infected cells to 50% of that produced by compound-free, mock-infected cells. The therapeutic index (TI) was calculated by dividing the CC50 value by the EC50 value.
# (§2) All strains of human rhinovirus (HRV) for use in this assay were purchased from American Type Culture Collection (ATCC), except for HRV serotype-14 (produced from the infectious cDNA clone constructed by Dr. Robert Rueckert, Institute for Molecular Virology, University of Wisconsin, Madison, Wis.). HRV stocks were propagated and viral assays were performed in H1-HeLa cells (ATCC). Cells were grown in minimal essential medium with 10% fetal bovine serum, available from Life Technologies (Gaithersburg, Md.).
# [2] = target: T1, rhinovirus 3C protease, serotype 14 (Human rhinovirus 14, UniProt P03303); assay: Inhibition of rhinovirus 3C protease (FRET assay, enzyme start); format: biochemical; details: HRV-14 3C protease, progress curves, read-out: Kobs/I
# T1 construct: Recombinant rhinovirus 3C proteases; made in house
# T1 sequence (P03303 1538-1719): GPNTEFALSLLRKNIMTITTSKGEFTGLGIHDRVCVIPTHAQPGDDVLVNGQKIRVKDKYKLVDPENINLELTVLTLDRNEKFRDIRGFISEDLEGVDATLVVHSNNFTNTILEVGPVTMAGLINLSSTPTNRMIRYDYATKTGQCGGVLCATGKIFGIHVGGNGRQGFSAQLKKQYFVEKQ
# Procedure: Stock solutions (50 mM, in DMSO) of various compounds were prepared; dilutions were in the same solvent. Recombinant rhinovirus 3C proteases (see Birch et al., “Purification of recombinant human rhinovirus 14 3C protease expressed in Escherichia coli,” Protein Expr. Pur. (1995), vol. 6(5), 609-618) from serotypes 14, 16, and 2 were prepared by the following standard chromatographic procedures: (1) ion exchange using Q Sepharose Fast Flow from Pharmacia; (2) affinity chromatography using Affi-Gel Blue from Biorad; and (3) sizing using Sephadex G-100 from Pharmacia. Each assay sample contained 2% DMSO, 50 mM tris pH 7.6, 1 mM EDTA, a test compound at the indicated concentration, approximately 1 μM substrate, and 50-100 nM protease. The kobs/I values were obtained from reactions initiated by addition of enzyme rather than substrate. RVP activity was measured in the fluorescence resonance energy transfer assay. The substrate was (N-terminal) DABCYL-(Gly-Arg-Ala-Val-Phe-Gln-Gly-Pro-Val-Gly)-EDANS. In the uncleaved peptide, the EDANS fluorescence was quenched by the proximal DABCYL moiety. When the peptide was cleaved, the quenching was relieved, and activity was measured as an increase in fluorescence signal. The tabulated data in the column designated kobs/[I] were measured from progress curves in enzyme start experiments.
# HRV-14 = assay: Antirhinoviral H1-HeLa cell culture assay (XTT cell protection); format: cell-based, human rhinovirus; details: Rhinovirus B, HRV14, H1-HeLa, HRV-14, H1-HeLa cells
# Procedure: as §1, §2
Compound,CC50 at 2 days [1],kinact/KI [2],EC50 (HRV-14)
"CCOC(=O)/C=C/[C@H](CCC(N)=O)NC(=O)[C@H](Cc1ccccc1)NC(=O)c1ccc(-c2ccncc2)[nH]1 [Compound 15, 6-Carbamoyl-4S-{3-phenyl-2S-[(5-pyridin-4-yl-1H-pyrrole-2-carbonyl)-amino]-propionylamino}-hex-2(trans)-enoic acid ethyl ester]",> 100 µM,980 M⁻¹ s⁻¹,27 µM
"C#CC[C@H](NC(=O)c1ccc(-c2ccccc2C(F)(F)F)[nH]1)C(=O)N[C@H](/C=C/C(=O)OCC)CCC(N)=O [Compound 16, 6-Carbamoyl-4S-(2S-{[5-(2-trifluoromethyl-phenyl)-1H-pyrrole-2-carbonyl]-amino}-pent-4-ynoylamino)-hex-2(trans)-enoic acid ethyl ester]",> 10 µM,7100 M⁻¹ s⁻¹,1.32 µM
"CCOC(=O)/C=C/[C@H](CCC(N)=O)NC(=O)[C@H](CC(C)C)NC(=O)c1ccc(-c2ccccc2C(F)(F)F)[nH]1 [Compound 17, 6-Carbamoyl-4S-(4-methyl-2S-{[5-(2-trifluoromethyl-phenyl)-1H-pyrrole-2-carbonyl]-amino}-pentanoylamino)-hex-2(trans)-enoic acid ethyl ester]",> 10 µM,2900 M⁻¹ s⁻¹,2.19 µM
"CCC[C@H](NC(=O)c1ccc(-c2ccccc2C(F)(F)F)[nH]1)C(=O)N[C@H](/C=C/C(=O)OCC)CCC(N)=O [Compound 18, 6-Carbamoyl-4S-(2S-{[5-(2-trifluoromethyl-phenyl)-1H-pyrrole-2-carbonyl]-amino}-pentanoylamino)-hex-2(trans)-enoic acid ethyl ester]",> 10 µM,3140 M⁻¹ s⁻¹,1.6 µM
"CCCC[C@H](NC(=O)c1ccc(-c2ccccc2C(F)(F)F)[nH]1)C(=O)N[C@H](/C=C/C(=O)OCC)CCC(N)=O [Compound 19, 6-Carbamoyl-4S-(2S-{[5-(2-trifluoromethyl-phenyl)-1H-pyrrole-2-carbonyl]-amino}-hexanoylamino)-hex-2(trans)-enoic acid ethyl ester]",> 10 µM,6650 M⁻¹ s⁻¹,1.53 µM
"CCOC(=O)/C=C/[C@H](CCC(N)=O)NC(=O)CNC(=O)c1ccc(-c2ccccc2C(F)(F)F)[nH]1 [Compound 20, 6-Carbamoyl-4S-(2S-{[5-(2-trifluoromethyl-phenyl)-1H-pyrrole-2-carbonyl]-amino}-acetylamino)-hex-2(trans)-enoic acid ethyl ester]",> 100 µM,330 M⁻¹ s⁻¹,16.4 µM
"CCOC(=O)/C=C/[C@H](CCC(N)=O)NC(=O)[C@H](Cc1ccccc1)NC(=O)c1ccc(CCC(F)(F)F)[nH]1 [Compound 22, 6-Carbamoyl-4S-(3-phenyl-2S-{[5-(3,3,3-trifluoro-propyl)-1H-pyrrole-2-carbonyl]-amino}-propionylamino)-hex-2(trans)-enoic acid ethyl ester]",> 10 µM,4400 M⁻¹ s⁻¹,5.72 µM
"CCOC(=O)/C=C/[C@H](CCC(N)=O)NC(=O)[C@H](CC)NC(=O)c1ccc(-c2ccccc2C(F)(F)F)[nH]1 [Compound 23, 6-Carbamoyl-4S-(2S-{[5-(2-trifluoromethyl-phenyl)-1H-pyrrole-2-carbonyl]-amino}-butyrlamino)-hex-2(trans)-enoic acid ethyl ester]",> 10 µM,3800 M⁻¹ s⁻¹,1.55 µM
"CCOC(=O)/C=C/[C@H](C[C@@H]1CCNC1=O)NC(=O)[C@H](Cc1ccccc1)NC(=O)c1ccc[nH]1 [Compound 24, 5-(2-Oxo-pyrrolidin-3S-yl)-4S-{3-phenyl-2S-[(1H-pyrrole-2-carbonyl)-amino]-propionylamino}-pent-2(trans)-enoic acid ethyl ester]",> 100 µM,5460 M⁻¹ s⁻¹,3.91 µM
O=C1OCC/C1=C\[C@H](C[C@@H]1CCNC1=O)NC(=O)[C@H](Cc1ccc(F)cc1)NC(=O)c1ccc(-c2cccc3ccccc23)[nH]1 [Compound 26],> 10 µM,188000 M⁻¹ s⁻¹,0.073 µM
"O=C1OCC/C1=C\[C@H](C[C@@H]1CCNC1=O)NC(=O)[C@H](Cc1ccc(F)cc1)NC(=O)c1ccc(-c2ccccc2)[nH]1 [Compound 27, 5-Phenyl-1H-pyrrole-2-carboxylic acid-{2S-(4-fluorophenyl)-1S-[1-(2-oxo-dihydrofuran-3-ylidinemethyl)-1-(2-oxo-pyrrolidin-3S-methyl)-ethylcarbamoyl]-2S-phenyl-ethyl}-amide]",> 10 µM,11700 M⁻¹ s⁻¹,1.58 µM
CCOC(=O)/C=C/[C@H](C[C@@H]1CCNC1=O)NC(=O)[C@@H](CC(=O)c1ccc[nH]1)Cc1ccccc1 [Compound 30],> 10 µM,2500 M⁻¹ s⁻¹,3.34 µM
"O=C1OCC/C1=C\[C@H](C[C@@H]1CCNC1=O)NC(=O)[C@@H](CC(=O)c1ccc(-c2cccc3ccccc23)[nH]1)Cc1ccc(F)cc1 [Compound 33, 2-(R,S)-(4-Fluorobenzyl)-4-(5-naphthalen-1-yl-1H-pyrrol-2-yl)-4-oxo-N-[2-(2-oxo-dihydro-furan-3-ylidine)-1S-(2-oxo-pyrrolidin-3S-ylmethyl)-ethyl]-butyramide]",> 10 µM,100000 M⁻¹ s⁻¹,0.212 µM
"CCOC(=O)/C=C/[C@H](C[C@@H]1CCNC1=O)NC(=O)[C@@H](CC(=O)c1ccc(-c2ccccc2C(F)(F)F)[nH]1)Cc1ccccc1 [Compound 35, 4S-{2R-Benzyl-4-oxo-4-[5-(2-trifluoromethyl-phenyl)-1H-pyrrol-2-yl]-butyrylamino}-5-(2-oxo-pyrrolidin-3S-yl)-pent-2(trans)-enoic acid ethyl ester]",> 10 µM,125000 M⁻¹ s⁻¹,0.143 µM
"CCOC(=O)/C=C/[C@H](C[C@@H]1CCNC1=O)NC(=O)[C@H](CC)CC(=O)c1ccc(-c2ccccc2C(F)(F)F)[nH]1 [Compound 37, 4S-{2R-Ethyl-4-oxo-4-[5-(2-trifluoromethyl-phenyl)-1H-pyrrol-2-yl]-butyrylamino}-5-(2-oxo-pyrrolidin-3S-yl)-pent-2(trans)-enoic acid ethyl ester]",> 10 µM,26400 M⁻¹ s⁻¹,0.266 µM
"CCOC(=O)/C=C/[C@H](CCC(N)=O)NC(=O)[C@@H](CC(=O)c1ccc(-c2ccccc2C(F)(F)F)[nH]1)Cc1ccccc1 [Compound 40, 4S-{2R-Benzyl-4-oxo-[5-(2-trifluoromethyl-phenyl)-1H-pyrrol-2-yl]-butyrylamino}-6-carbamoyl-hex-2(trans)-enoic acid ethyl ester]",> 10 µM,3180 M⁻¹ s⁻¹,1.66 µM
"CCOC(=O)/C=C/[C@H](CCC(N)=O)NC(=O)[C@H](Cc1ccccc1)N(C)C(=O)c1ccc(-c2ccccc2C(F)(F)F)[nH]1 [Compound 41, 6-Carbamoyl-4S-(2S {methyl-[5-(2-trifluoromethyl-phenyl)-1H-pyrrole-2-carbonyl]-amino}-3-3-phenyl-propionylamino)-hex-2(trans)-enoic acid ethyl ester]",> 10 µM,10700 M⁻¹ s⁻¹,0.5 µM
